The record followed here is patent US9422267B2, “Fused pyrimidine compounds and use thereof” (Medivation Technologies, Inc., priority 2012, dated 2016).

One series addresses DCAMKL2 (Homo sapiens, UniProt Q8N568). Description: Caliper kinase profiling: DCAMKL2. Type of series: biochemical. As to conditions: DCAMKL2, 1 μM; read-out: Average % Inh @ 1 μM.
The target of another series is T1, Abl(H396P) (Homo sapiens, UniProt P00519, H396P).
T1 construct: purchased Caliper LifeSciences (ProfilerPro Kinase Selectivity Assay Kits)
Put plainly: Caliper kinase profiling: Abl(H396P). Type of series: biochemical. As to conditions: read-out: Average % Inh @ 1 μM.

In a further series the target is EPHA5 (Homo sapiens, UniProt P54756). Description: Caliper kinase profiling: EPHA5. The note with it: EPHA5, 1 μM; read-out: Average % Inh @ 1 μM. It is filed as biochemical.
Another series addresses FGR (Homo sapiens, UniProt P09769). Put plainly: Caliper kinase profiling: FGR. Type of series: biochemical.
A further series concerns the target EPHA4 (Homo sapiens, UniProt P54764). Description: Caliper kinase profiling: EPHA4. It is filed as biochemical. As to conditions: EPHA4, 1 μM; read-out: Average % Inh @ 1 μM.
The next series has as its target KDR (Homo sapiens, UniProt P35968). Put plainly: Caliper kinase profiling: KDR. The note with it: read-out: Average % Inh @ 1 μM. It is filed as biochemical.
The next series addresses FLT4 (Homo sapiens, UniProt P35916). Description: Caliper kinase profiling: FLT4. Type of series: biochemical. As to conditions: FLT4, 1 μM; read-out: Average % Inh @ 1 μM.
In a further series the target is RET (Homo sapiens, UniProt P07949). Put plainly: Caliper kinase profiling: RET. It is filed as biochemical.
Chain of RET (P07949 29-1114): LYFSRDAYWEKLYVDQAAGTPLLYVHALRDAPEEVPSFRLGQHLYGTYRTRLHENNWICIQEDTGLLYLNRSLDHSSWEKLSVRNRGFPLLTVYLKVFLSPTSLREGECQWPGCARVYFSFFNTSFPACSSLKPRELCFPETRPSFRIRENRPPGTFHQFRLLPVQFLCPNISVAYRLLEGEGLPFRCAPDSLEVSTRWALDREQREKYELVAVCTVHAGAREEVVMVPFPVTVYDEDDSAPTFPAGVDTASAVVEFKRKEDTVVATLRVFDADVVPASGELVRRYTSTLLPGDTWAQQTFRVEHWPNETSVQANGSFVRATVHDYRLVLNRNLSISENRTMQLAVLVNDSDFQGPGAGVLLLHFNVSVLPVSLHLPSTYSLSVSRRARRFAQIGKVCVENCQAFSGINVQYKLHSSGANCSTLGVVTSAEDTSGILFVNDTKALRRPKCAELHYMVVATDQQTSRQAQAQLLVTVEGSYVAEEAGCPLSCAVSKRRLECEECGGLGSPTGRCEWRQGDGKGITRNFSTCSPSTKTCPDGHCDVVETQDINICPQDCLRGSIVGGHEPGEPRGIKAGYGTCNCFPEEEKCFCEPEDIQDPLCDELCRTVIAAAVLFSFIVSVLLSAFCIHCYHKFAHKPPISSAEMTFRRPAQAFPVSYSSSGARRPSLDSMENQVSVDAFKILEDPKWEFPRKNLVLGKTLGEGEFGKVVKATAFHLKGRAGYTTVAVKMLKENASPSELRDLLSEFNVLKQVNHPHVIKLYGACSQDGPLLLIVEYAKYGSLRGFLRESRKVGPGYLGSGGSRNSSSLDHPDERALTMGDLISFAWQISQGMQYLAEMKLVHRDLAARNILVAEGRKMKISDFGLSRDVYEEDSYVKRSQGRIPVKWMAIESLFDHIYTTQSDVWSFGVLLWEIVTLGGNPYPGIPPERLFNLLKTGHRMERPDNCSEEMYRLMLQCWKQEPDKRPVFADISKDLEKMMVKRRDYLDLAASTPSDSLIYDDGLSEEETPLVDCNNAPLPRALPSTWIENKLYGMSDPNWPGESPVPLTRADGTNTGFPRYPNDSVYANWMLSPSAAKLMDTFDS
The target of the next series is LTK (Homo sapiens, UniProt P29376). Description: Caliper kinase profiling: LTK. It is filed as biochemical. As to conditions: read-out: Average % Inh @ 1 μM.
The target in a further series is EPHB1 (Homo sapiens, UniProt P54762). Put plainly: Caliper kinase profiling: EPHB1. It is filed as biochemical. The note with it: EPHB1, 1 μM; read-out: Average % Inh @ 1 μM.
The next series deals with T2, ABL1(G250E) (Homo sapiens, UniProt P00519, G250E).
T2 construct: purchased Caliper LifeSciences (ProfilerPro Kinase Selectivity Assay Kits)
Description: Caliper kinase profiling: ABL1(G250E). Type of series: biochemical. The note with it: read-out: Average % Inh @ 1 μM.

The target in a further series is FLT3 (Homo sapiens, UniProt P36888). Description: Caliper kinase profiling: FLT3. The note with it: FLT3, 1 μM; read-out: Average % Inh @ 1 μM. It is filed as biochemical.
The target in another series is T3, Mer (Homo sapiens, UniProt Q12866).
T3 construct: purchased Caliper LifeSciences (ProfilerPro Kinase Selectivity Assay Kits)
T3 sequence (Q12866 21-999): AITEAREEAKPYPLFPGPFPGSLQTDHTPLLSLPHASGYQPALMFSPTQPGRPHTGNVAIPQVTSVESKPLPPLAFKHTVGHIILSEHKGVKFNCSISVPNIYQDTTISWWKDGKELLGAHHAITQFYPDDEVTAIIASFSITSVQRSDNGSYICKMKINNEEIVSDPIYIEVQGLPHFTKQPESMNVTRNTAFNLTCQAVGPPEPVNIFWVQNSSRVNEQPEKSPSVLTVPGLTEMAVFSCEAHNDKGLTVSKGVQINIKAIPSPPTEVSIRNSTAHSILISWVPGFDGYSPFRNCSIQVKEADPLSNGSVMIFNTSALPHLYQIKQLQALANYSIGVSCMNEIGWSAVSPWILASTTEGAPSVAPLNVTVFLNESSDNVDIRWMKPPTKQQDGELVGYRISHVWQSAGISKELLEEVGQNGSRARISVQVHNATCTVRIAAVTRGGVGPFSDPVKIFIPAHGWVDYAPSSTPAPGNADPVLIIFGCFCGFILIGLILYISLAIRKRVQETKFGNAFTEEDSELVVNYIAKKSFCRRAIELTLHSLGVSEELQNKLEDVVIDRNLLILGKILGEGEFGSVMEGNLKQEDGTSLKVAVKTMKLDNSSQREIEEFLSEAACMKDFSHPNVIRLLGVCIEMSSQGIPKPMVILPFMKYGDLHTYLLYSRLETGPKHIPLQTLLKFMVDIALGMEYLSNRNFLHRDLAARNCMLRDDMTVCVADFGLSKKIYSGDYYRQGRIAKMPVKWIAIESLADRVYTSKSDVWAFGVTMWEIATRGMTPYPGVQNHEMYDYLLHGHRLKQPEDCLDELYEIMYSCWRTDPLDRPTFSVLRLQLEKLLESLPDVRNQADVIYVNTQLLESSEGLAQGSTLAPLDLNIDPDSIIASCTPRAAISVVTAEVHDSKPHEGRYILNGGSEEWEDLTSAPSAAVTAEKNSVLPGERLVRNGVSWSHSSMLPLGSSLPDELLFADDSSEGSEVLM
Description: Caliper kinase profiling: Mer. Type of series: biochemical. As to conditions: for inhibition at 0.01 µM: 10 nM, read-out: Average % Inh @ 10 nM.

The target of a further series is T4, AMPK-α2/β1/γ1 (Homo sapiens, UniProt P54646).
T4 construct: purchased Caliper LifeSciences (ProfilerPro Kinase Selectivity Assay Kits)
T4 sequence (P54646 whole entry): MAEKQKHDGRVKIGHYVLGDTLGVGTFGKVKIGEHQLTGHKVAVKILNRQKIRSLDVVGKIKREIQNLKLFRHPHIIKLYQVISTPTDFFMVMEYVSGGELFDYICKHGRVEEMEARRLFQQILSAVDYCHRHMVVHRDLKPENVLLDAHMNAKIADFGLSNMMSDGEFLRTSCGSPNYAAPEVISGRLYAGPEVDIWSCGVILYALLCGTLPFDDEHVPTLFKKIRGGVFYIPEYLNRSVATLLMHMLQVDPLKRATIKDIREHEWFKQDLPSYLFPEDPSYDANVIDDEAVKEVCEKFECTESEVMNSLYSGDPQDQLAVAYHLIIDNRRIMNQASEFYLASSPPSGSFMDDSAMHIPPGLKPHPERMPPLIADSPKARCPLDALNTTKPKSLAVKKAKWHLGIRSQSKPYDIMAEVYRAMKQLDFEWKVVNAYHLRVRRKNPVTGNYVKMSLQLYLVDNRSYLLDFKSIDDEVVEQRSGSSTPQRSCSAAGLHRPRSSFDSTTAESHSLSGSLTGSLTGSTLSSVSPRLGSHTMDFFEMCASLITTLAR
T4 sequence (Q9Y478 whole entry partner): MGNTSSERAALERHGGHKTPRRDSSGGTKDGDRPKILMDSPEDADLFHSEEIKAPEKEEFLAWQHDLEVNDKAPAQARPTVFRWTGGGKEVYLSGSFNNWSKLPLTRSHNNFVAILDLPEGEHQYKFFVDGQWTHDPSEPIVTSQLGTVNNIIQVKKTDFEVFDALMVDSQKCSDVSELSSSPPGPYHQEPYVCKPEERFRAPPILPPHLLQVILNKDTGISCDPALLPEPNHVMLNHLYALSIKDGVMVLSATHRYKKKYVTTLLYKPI
T4 sequence (P54619 whole entry partner): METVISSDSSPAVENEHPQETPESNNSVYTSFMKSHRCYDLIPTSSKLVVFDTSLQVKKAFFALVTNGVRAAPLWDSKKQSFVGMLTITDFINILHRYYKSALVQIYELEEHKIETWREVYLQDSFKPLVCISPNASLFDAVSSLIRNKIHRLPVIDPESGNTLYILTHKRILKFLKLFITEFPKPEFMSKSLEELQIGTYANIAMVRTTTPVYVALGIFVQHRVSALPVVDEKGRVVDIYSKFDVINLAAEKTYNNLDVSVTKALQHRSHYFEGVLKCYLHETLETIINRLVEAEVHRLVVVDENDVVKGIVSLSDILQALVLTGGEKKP
Description: Caliper kinase profiling: AMPK-α2/β1/γ1. Type of series: biochemical.

A further series concerns the target MET(M1250T) (Homo sapiens, UniProt P08581, M1250T). Put plainly: Caliper kinase profiling: MET(M1250T). It is filed as biochemical.
The target of the next series is PAK5(PAK7) (Homo sapiens, UniProt Q9P286). Description: Caliper kinase profiling: PAK5(PAK7). Type of series: biochemical. As to conditions: read-out: Average % Inh @ 1 μM.
In a further series the target is FES (Homo sapiens, UniProt P07332). Put plainly: Caliper kinase profiling: FES. Type of series: biochemical. The note with it: read-out: Average % Inh @ 1 μM.
Another series addresses LCK (Homo sapiens, UniProt P06239). Put plainly: Caliper kinase profiling: LCK. Type of series: biochemical.
The subject of a further series is AMPK. Description: Caliper kinase profiling: AMPK. It is filed as biochemical.
Series [1] has as its system panel of 72 non-kinase targets (Table B14), incl. CYP450. Description: Extended panel screen against non-kinase targets (LeadProfilingScreen and CYP450 assays). The note with it: 72 non-kinase targets, read-out: percent inhibition of all non-kinase targets. Type of series: binding. The protocol: (§1) Compound no. The experiments were performed by Ricerca Biosciences (Painesville, Ohio) using the LeadProfilingScreen and CYP450 assays. Compound no. 8b was screened at a concentration of 1 μM. No significant hits were identified.

In series [2] the test system is over 50 of the panel of 72 non-kinase targets (Table B14). The description is as above. It is filed as binding. The note with it: read-out: percent inhibition for over 50 of the non-kinase targets tested. The protocol: as §1
Where [3] appears, read: 10 nM, read-out: Average % Inh @ 10 nM.
[4] abbreviates: 100 nM, read-out: Average % Inh @ 100 nM.
The mark [5] stands for this setting: 1 μM, read-out: Average % Inh @ 1 μM.

Chain of MET(M1250T) (P08581 25-1390 M1250T): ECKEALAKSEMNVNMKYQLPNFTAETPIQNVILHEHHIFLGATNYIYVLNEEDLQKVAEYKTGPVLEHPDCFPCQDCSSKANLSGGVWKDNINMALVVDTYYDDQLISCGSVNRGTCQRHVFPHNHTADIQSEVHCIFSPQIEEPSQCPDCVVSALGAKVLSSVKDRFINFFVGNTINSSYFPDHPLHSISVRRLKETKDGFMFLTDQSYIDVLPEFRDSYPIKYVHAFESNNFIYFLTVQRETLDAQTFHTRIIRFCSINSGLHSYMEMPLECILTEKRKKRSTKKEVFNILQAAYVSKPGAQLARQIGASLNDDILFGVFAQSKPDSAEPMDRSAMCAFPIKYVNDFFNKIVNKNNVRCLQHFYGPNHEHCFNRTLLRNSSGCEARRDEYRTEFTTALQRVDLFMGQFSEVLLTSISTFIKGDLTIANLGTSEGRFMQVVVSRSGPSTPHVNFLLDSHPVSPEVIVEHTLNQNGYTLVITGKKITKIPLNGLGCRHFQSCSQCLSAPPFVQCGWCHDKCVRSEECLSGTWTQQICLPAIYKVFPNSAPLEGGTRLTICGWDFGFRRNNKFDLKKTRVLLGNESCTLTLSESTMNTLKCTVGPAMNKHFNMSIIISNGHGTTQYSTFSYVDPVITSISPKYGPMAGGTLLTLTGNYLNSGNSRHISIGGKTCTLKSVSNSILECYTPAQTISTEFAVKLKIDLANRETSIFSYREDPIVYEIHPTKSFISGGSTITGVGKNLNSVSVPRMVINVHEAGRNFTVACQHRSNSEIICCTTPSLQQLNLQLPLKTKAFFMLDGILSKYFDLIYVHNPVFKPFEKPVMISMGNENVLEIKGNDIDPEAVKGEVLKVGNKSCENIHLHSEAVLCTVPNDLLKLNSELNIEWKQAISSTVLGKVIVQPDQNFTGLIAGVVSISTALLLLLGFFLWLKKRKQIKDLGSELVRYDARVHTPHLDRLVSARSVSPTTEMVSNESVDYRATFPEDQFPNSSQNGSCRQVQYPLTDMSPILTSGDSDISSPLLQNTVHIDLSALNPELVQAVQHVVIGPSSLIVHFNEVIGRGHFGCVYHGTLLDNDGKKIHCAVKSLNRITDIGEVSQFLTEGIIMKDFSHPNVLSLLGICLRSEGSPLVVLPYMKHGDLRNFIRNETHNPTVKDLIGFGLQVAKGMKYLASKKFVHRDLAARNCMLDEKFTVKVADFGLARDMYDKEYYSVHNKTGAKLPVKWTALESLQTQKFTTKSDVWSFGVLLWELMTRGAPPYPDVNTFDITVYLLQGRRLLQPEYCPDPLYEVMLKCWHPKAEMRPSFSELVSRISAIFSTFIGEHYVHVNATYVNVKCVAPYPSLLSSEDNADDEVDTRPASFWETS
Chain of FGR (P09769 whole entry): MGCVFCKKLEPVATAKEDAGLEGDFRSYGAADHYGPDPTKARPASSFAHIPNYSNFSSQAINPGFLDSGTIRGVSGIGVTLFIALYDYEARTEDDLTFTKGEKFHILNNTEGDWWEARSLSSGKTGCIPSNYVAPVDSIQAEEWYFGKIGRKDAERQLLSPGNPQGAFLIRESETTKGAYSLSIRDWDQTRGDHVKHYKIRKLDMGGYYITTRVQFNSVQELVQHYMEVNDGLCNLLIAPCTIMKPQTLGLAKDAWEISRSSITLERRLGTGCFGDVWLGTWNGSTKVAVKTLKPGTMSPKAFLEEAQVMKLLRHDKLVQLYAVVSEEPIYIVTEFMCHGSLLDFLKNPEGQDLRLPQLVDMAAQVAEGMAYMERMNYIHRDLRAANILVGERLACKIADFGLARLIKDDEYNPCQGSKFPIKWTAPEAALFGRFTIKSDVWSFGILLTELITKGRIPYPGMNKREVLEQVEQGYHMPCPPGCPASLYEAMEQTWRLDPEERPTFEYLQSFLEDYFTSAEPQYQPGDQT
Chain of LCK (P06239 whole entry): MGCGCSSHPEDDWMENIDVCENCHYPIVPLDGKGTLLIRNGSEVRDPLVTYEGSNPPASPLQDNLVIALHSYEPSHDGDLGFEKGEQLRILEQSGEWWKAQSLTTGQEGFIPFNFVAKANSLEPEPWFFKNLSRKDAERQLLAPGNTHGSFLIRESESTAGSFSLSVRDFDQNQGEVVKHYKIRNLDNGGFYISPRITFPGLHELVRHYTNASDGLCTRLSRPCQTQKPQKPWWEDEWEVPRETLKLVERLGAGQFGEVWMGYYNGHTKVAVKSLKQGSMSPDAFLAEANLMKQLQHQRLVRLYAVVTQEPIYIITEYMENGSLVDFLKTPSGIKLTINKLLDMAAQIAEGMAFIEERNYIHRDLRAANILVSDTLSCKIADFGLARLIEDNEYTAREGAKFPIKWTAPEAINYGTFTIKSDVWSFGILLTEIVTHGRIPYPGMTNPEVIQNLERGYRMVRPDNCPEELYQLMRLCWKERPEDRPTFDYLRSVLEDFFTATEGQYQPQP
Description for KDR: The compound was tested at concentrations of 1.0×10^−8 and 1.0×10^−9 M in the RapidKinase192™ panel in duplicate. […] The screening was performed using the Caliper EZReader2, a 4-sipper LabChip, and ProfilerPro Kinase Selectivity Assay Kits 1 and 2. The assay measures the conversion of a fluorescent peptide substrate to a phosphorylated product. Briefly, the reaction mixture was introduced through a capillary sipper onto the microfluidic chip, where the substrate and product were electrophoretically separated and detected by laser-induced fluorescence. The time-dependent fluorescence signal indicates the extent of the reaction.

Take `O=C(Nc1ccc(F)nc1)C1CCCN1c1nc2c(c(Nc3cc(C4CC4)[nH]n3)n1)CCC2` (single isomer, unassigned) [Compound 2b, 1-(4-(5-cyclopropyl-1H-pyrazol-3-ylamino)-6,7-dihydro-5H-cyclopenta[d]pyrimidin-2-yl)-N-(6-fluoropyridin-3-yl)pyrrolidine-2-carboxamide]: the inhibition at 1 µM is above 60% on DCAMKL2; 40 to 59% at Abl(H396P); above 60% at EPHA5; above 60% at FGR (setting [5]); 40 to 59% at EPHA4; 40 to 59% on KDR. The inhibition at 1 µM was 40 to 59% at FLT4; above 60% on RET (setting [5]); above 60% on LTK; above 60% at EPHB1; above 60% at ABL1(G250E); 40 to 59% on FLT3. Also, the inhibition at 1 µM at Mer (setting [5]) is above 60%; at AMPK-α2/β1/γ1 (AMPK-α2/β1/γ1, 1 μM, read-out: Average % Inh @ 1 μM) it was above 60%; at MET(M1250T) (MET(M1250T), 1 μM, read-out: Average % Inh @ 1 μM), above 60%; at PAK5(PAK7), 40 to 59%; on FES, 40 to 59%; at LCK (setting [5]), above 60%. Besides, the inhibition at 0.01 µM on FGR (setting [3]) is below 39%; at RET (setting [3]) it was below 39%; on Mer it was 40 to 59%; on AMPK-α2/β1/γ1 (AMPK-α2/β1/γ1, 10 nM, read-out: Average % Inh @ 10 nM), below 39%; on MET(M1250T) (MET M1250T, 10 nM, read-out: Average % Inh @ 10 nM) it was below 39%; at LCK (setting [3]) it was below 39%. The inhibition at 0.1 µM on FGR (setting [4]) is below 39%; on RET (setting [4]), 40 to 59%; at Mer (setting [4]), above 60%; at AMPK-α2/β1/γ1 (AMPK-α2/β1/γ1, 100 nM, read-out: Average % Inh @ 100 nM), 40 to 59%; on MET(M1250T) (MET M1250T, 100 nM, read-out: Average % Inh @ 100 nM), below 39%; on LCK (setting [4]), below 39%. Further, the “Average % Inh @ 10 nM” value in the series on AMPK (10 nM) was “+ (+=Low)”. Besides, in the series with AMPK (100 nM), the “Average % Inh @ 100 nM” value is on record as “++ (++=Med)”. The “Average % Inh @ 1 μM” value with AMPK (1 μM) was “+++ (+++=High)”.
Take `CC(C)c1cc(Nc2nc(N3CCCC3C(=O)Nc3ccc(F)nc3)nc3c2CCC3)n[nH]1` (single isomer, unassigned) [Compound 8b]: the inhibition at 0.001 µM at Mer (1 nM, read-out: Average % Inh @ 1 nM) was below 39%. At Mer, the inhibition at 0.01 µM is above 60%. This compound also showed an IC50 on Mer (8 concentrations 3.0×10^−7 to 1.0×10^−10 M) of 3.84 nM. The inhibition at 1 µM in series [1] is below 30%; in series [2], below 10%.
